Values joined by “and” are separate entries in the source; they are usually repeats but may differ in a detail not shown here. Equal entries are not always repeated. “Also recorded” adds a separate entry of the source. Where two headings read alike, the source gives them in different places.
Columns and labels:
HC110-R [1] = assay type: cell-based, Haemonchus contortus; conditions: for α-LTX-induced increase in [Ca2+]i after preincubation: substance removed, then 75 nM α-LTX
Experimental: The intracellular free Ca^2+ concentration [Ca^2+]i was measured in COS-7 and HEK293 cells transiently transfected with the HC110-R-EGFP or β2-AR-EGFP construct using the calcium imaging method (see also FIG. 11). In each case 2×10^5 COS-7 and HEK293 cells were applied to a 42 mm cover glass coated with 1% gelatine in 55 mm tissue culture dishes with 5 ml of DMEM medium (with 10% FCS and pen/strep). The transfection took place with the aid of the non-liposomal transfection reagent FuGENE 6 (Roche Molecular Biochemicals, Mannheim). […] Constructs of the HC110-R full-length clone with a GFP tag fused in the correct reading frame, and the complete cDNA of the β2-adrenergic receptor which had likewise been provided with a GFP tag at the 3′ end, were transfected.
After the incubation, the cells loaded with Fura-2/AM were examined under an inverted microscope (Zeiss, Axiovert, Germany) and, in parallel with this, in a digital imaging fluorescence microscope (PTI) and differentiated into transfected and untransfected cells at a wavelength of 440 and 490 nm respectively. On average, 5-7 transfected and non transfected cells were selected by fixing an ROI (region of interest). The extinction was measured at 340 nm (calcium-bound Fura-2/AM) and 380 nm (free Fura-2/AM), and the emission was measured at 510 nm. Evaluation took place using the Image Master 1.x software by forming the quotient of 340:510 nm, 380:510 nm and the ratio of 340/380:510 nm (background corrected images) as a function of the agent added.
Agents were always added 6 min after starting the measurement by removing an appropriate volume of Na^+ HBS buffer and pipetting the agent directly into the sample vessel for a further 30 to 50 min. The total volume in the sample vessel was constant at 1.5 ml throughout the experiment. […] Addition of CdCl2 and nifedipine took place immediately at the start of the experiment and before addition of α-LTX, and EGTA was added both at the start of the experiment and 4 min after the addition of α-LTX. Dissolved α-LTX was present in a concentration of 300 nM in 50 mM tris-HCl, pH 8.0; BAY 44-4400 was initially dissolved in pure DMSO (stock solutions between 0.004 and 10 μg/ml). The stock solutions were adjusted to the required concentration in the Na^+ HBS buffer. The maximum amount of the active substance BAY 44-4400 which could be dissolved at a final concentration of 0.1% DMSO was found by setting up serial dilutions in Na^+ HBS.
The data were analyzed using the Excel 98 table calculation programme. The results are derived from at least 2-4 reproduced experiments on in each case 4-8 transfected and un-transfected cells.

nematodes [2] = assay: Anthelmintic / neuropharmacological activity on nematodes
HC110-R [3] = assay: Ca2+ imaging of HEK-293 cells expressing HC110-R-Myc/His; assay type: cell-based, Haemonchus contortus; conditions: stably expressing cells; 400 ng/ml added 6 min before 75 nM α-LTX
β2-R-GFP = target: T1, β2-R-GFP (Mus musculus, UniProt P18762); assay: PF1022A binding by FACScan, β2-R-GFP control cells
T1 construct: was fused with a C-terminal EGFP tag by amplifying the full-length cDNA with the P117 mouse 2AR XhoI 5′ primer; expressed in transfected cells; host or cells: HEK-293, transient (pEGFP-N3)
Experimental: (§1) For this purpose, HEK-293 cells were transiently transfected with HC110-R-GFP or GFP-HC110-R or else transiently cotransfected with HC110-R-Myc/His and GFP. […] 24 h after the transfection, the cells were incubated with biotinylated PF1022A, and PF1022A-bound cells were detected using streptavidin-phycoerythrin and were finally fixed. A negative control of cells transfected with HC110-R-GFP was incubated only with streptavidin-phycoerythrin without PF1022A-biotin.
(§2) Phycoerythrin has—like TRITC—an absorption spectrum which overlaps with EGFP, while the emission spectra are adequately separated, so that both fluorochromes can be excited at only one wavelength. Cell detritus was excluded from the measurement of the fluorescence intensity by setting a ‘gate’ on the main cell population. For quantitative evaluation, the limits were fixed for negative, unstained and positive, GFP-fluorescent cells on the basis of the untransfected and GFP-transfected cells.
(§3) In each case 5×10^5 HEK-293 cells which were not transfected, were transiently transfected with GFP, HC110-R-GFP, GFP-HC110-R, β2-R-GFP and M1-R-GFP, and transiently cotransfected with HC110-R-Myc/His and GFP were incubated, 24 h after the transfection, with 0.5 μg/ml PF1022A-biotin and streptavidin-phycoerythrin (1:300) and then fixed. […]

HEK-293 cells = assay: PF1022A binding by FACScan, untransfected and GFP-transfected control cells; design: species or system human; conditions: for Phycoerythrin fluorescence: 0.5 μg/ml PF1022A-biotin + streptavidin-phycoerythrin
Experimental: as §1, §2
(§4) In each case 5×10^5 HEK-293 cells which were not transfected, were transiently transfected with GFP, HC110-R-GFP, GFP-HC110-R, β2-R-GFP and M1-R-GFP, and transiently cotransfected with HC110-R-Myc/His and GFP were incubated, 24 h after the transfection, with 0.5 μg/ml PF1022A-biotin and streptavidin-phycoerythrin (1:300) and then fixed. As negative controls, HC110-R-GFP-transfected cells were incubated only with streptavidin-phycoerythrin, without PF1022A-biotin. […] The standard deviation is derived by determining the means of triplicate mixtures.

HC110-R [4] = assay type: binding, Haemonchus contortus; conditions: mixture of N terminus and C terminus expressed in E. coli
Experimental: In a control mixture with 4 mg of Dynal beads, TST buffer was added in place of PF1022A. Excess PF1022A-biotin was removed by magnetic separation before a mixture of the HC110-R terminus and C terminus expressed in E. coli and previously purified by affinity chromatography was added. After renewed magnetic separation to remove unbound HC110-R fragments, one aliquot derived from 2 mg, and one from 4 mg, of Dynal beads was fractionated by SDS-PAGE and blotted. Detection of the precipitate took place via the N-terminally fused His tag with a mouse anti-His IgG and a rabbit anti-mouse IgG HRP antibody. […] Nonspecific binding of the N or C terminus of HC110-R to the streptavidin-coupled beads was precluded by adding no biotinylated PF1022A to a reaction mixture.

M1-R-GFP = target: T2, M1-R-GFP (Homo sapiens, UniProt P11229); assay: PF1022A binding by FACScan, M1-R-GFP control cells
T2 construct: The full-length cDNA of a human muscarinic receptor 1 (huM1Rez); expressed in transfected cells; host or cells: HEK-293, transient (pEGFP-N3)
T2 sequence (P11229 1-460): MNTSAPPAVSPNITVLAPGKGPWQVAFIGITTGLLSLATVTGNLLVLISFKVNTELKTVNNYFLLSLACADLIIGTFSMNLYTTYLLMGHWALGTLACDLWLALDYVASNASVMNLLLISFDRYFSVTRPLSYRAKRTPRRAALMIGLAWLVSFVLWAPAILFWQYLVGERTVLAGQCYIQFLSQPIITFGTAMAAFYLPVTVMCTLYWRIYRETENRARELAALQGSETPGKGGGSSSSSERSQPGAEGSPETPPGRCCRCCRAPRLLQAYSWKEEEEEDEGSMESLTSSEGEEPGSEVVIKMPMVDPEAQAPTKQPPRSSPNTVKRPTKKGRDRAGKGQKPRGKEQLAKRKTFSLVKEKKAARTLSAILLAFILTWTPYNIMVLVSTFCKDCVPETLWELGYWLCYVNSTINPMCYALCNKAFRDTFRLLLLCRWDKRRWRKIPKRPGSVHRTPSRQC
Experimental: as §1, §2, §3

nematodes [5] = conditions: depending on the particular species (Terada, 1992); cited from earlier work
HC110-R [6] = assay type: binding, Haemonchus contortus; conditions: renatured; fragment expressed in E. coli
Source text: Since denaturation of proteins is necessary for carrying out SDS-PAGE, there may be destruction of conformation-dependent epitopes. Antibodies or proteins which specifically recognize such epitopes may therefore no longer bind. […] BAY44-4400 differs from PF1022A by 2 morpholine residues which are covalently bonded to the phenyl rings of the two D-phenyllactyl radicals of PF1022A. […] For this purpose, total protein from untransfected HEK-293 cells and HEK-293 cells which transiently express HC110-R-Myc/His, and from the 54 kDa N terminus and the 21 kDa C terminus of HC110-R which were expressed in E. coli, were fractionated by SDS-PAGE, renatured and blotted in the usual way. […] In addition, a partially renatured SDS polyacrylamide gel with the protein fractions of untransfected HEK-293 cells, HEK-293 cells transiently transfected with HC110-R-Myc/His, and the N terminus of HC110-R expressed in E. coli and total protein from H. contortus was blotted, incubated with PF1022A-biotin and detected using streptavidin HRP.

HC110-R [7] = assay: PF1022A binding to HC110-R-transfected HEK-293 cells by FACScan; design: species or system Haemonchus contortus; conditions: for Phycoerythrin fluorescence: 0.5 μg/ml PF1022A-biotin + streptavidin-phycoerythrin
Experimental: as §1, §2, §4

[8] = Ca2+ imaging, arecoline stimulation of untransfected HEK-293 cells; assay type: cell-based, human; conditions: 1 mM arecoline; absence of BAY44-4400

T1 sequence (P18762 whole entry, the tested form may be a part): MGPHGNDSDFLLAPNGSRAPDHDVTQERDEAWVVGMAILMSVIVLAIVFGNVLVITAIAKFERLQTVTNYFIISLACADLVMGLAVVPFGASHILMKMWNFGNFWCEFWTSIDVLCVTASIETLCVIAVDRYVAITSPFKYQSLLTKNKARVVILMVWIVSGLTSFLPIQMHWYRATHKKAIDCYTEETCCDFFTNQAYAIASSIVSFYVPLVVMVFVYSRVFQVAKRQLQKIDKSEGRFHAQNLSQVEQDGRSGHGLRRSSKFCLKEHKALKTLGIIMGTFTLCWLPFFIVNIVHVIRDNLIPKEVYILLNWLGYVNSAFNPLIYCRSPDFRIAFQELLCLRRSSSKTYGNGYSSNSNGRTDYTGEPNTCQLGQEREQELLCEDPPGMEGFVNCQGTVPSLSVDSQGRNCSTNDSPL

Structure (SMILES): O=C(O)CN(CCOCCOCCN(CC(=O)O)CC(=O)O)CC(=O)O [EGTA]
- α-LTX-induced increase in [Ca2+]i with extracellular Ca2+ removed (HC110-R [1]; 2 mM EGTA before or after addition of α-LTX): only a small increase

Structure (SMILES): CC(C)C[C@@H]1C(=O)O[C@@H](Cc2ccccc2)C(=O)N(C)[C@H](CC(C)C)C(=O)O[C@@H](C)C(=O)N(C)[C@H](CC(C)C)C(=O)O[C@@H](Cc2ccccc2)C(=O)N(C)[C@H](CC(C)C)C(=O)O[C@@H](C)C(=O)N1C [PF1022-001, cyclo(-L-Lac-D-MeLeu-L-PhLac-D-Me-Leu-)2]
- α-LTX-induced increase in [Ca2+]i in presence of substance (HC110-R [1]; 4 ng/ml added 6 min before 75 nM α-LTX): 103 ± 11.5 nM
- α-LTX-induced increase in [Ca2+]i in presence of substance (HC110-R [1]; 4 ng/ml added 6 min before 75 nM α-LTX, listed as optical antipode): 67 nM
- change in [Ca2+]i after preincubation with substance alone (HC110-R [1]; 4 ng/ml or 400 ng/ml, 90 min preincubation, no α-LTX): no change in [Ca^2+]i
- α-LTX-induced increase in [Ca2+]i after preincubation (HC110-R [1]; 4 ng/ml, 90 min preincubation): 102 ± 6.4 nM
- α-LTX-induced increase in [Ca2+]i in presence of substance (HC110-R [1]; 400 ng/ml added 6 min before 75 nM α-LTX): 112+14.3 nM
- Ca2+ response to substance alone (HC110-R [1]; 400 ng/ml where stated, no α-LTX, up to 50 min or 90 min preincubation): neither the very effective nematicide BAY44-4400 nor the virtually ineffective antipode PF1022-001 induces a Ca^2+ response
- α-LTX-induced increase in [Ca2+]i after preincubation (HC110-R [1]; 400 ng/ml, 90 min preincubation): 109 ± 8.4 nM and 110 nM
- reduction of α-LTX-induced Ca2+ increase (HC110-R [1]; 400 ng/ml, 90 minutes preincubation, 6 minutes after 75 nM α-LTX): 59%
- Ca2+-mediated response to substance alone (HC110-R [1]; 100, 300 or 400 ng/ml and 1 or 10 μg/ml, 50 min, untransfected and HC110-R-GFP-transfected cells): At no concentration was a Ca^2+-mediated response detectable
- α-LTX-induced increase in Ca2+ at increased concentration of substance (HC110-R [1]; concentration above 4 ng/ml, added 6 minutes before 75 nM α-LTX): 20 nM
- anthelmintic / nematicidal activity in words (nematodes [2]): has no anthelmintic activity; also recorded: virtually ineffective
- α-LTX-induced increase in [Ca2+]i in presence of substance (HC110-R [3]): 209 ± 33.4 nM

Structure (SMILES): CC(C)C[C@H]1C(=O)O[C@H](Cc2ccccc2)C(=O)N(C)[C@@H](CC(C)C)C(=O)O[C@H](C)C(=O)N(C)[C@@H](CC(C)C)C(=O)O[C@H](Cc2ccccc2)C(=O)N(C)[C@@H](CC(C)C)C(=O)O[C@H](C)C(=O)N1C [PF1022A, cyclo(-D-Lac-L-MeLeu-D-PhLac-L-MeLeu-)2]
- change in response to α-LTX after preincubation (HC110-R [1]; 4 ng/ml or 400 ng/ml, 90 minutes preincubation, removed before α-LTX): no significant change in their response to α-LTX
- Phycoerythrin fluorescence (β2-R-GFP): 0.8 ± 0.1%
- percentage of green-fluorescent cells that bind PF1022A (β2-R-GFP; cells expressing 2-R-GFP): 9.9%
- percentage of green-fluorescent cells that bind PF1022A (HEK-293 cells; cells expressing GFP): 7.5%
- Phycoerythrin fluorescence (HEK-293 cells; plasmid GFP): 1.3 ± 0.4%
- Phycoerythrin fluorescence (HEK-293 cells; untransfected): 0 ± 0%
- precipitation of HC110-R fragments (HC110-R [4]): Only the N-terminal 54 kDa region of HC110-R is precipitated
- Phycoerythrin fluorescence (M1-R-GFP): 1.6 ± 0.1%
- percentage of green-fluorescent cells that bind PF1022A (M1-R-GFP; cells expressing M1-R-GFP): 19.2%
- concentrations at which effect on nematodes is exerted (nematodes [5]): 100 to 800 ng/mL
- binding to 21 kDa C terminus of HC110-R (HC110-R [6]): no specific PF1022A binding
- percentage of green-fluorescent cells that bind PF1022A (HC110-R [7]; cells cotransfected with HC110-R-Myc/His and GFP): 44.5%
- percentage of green-fluorescent cells that bind PF1022A (HC110-R [7]; cells expressing GFP-HC110-R): 26.8%
- percentage of green-fluorescent cells that bind PF1022A (HC110-R [7]; cells expressing HC110-R-GFP): 41.2%
- Phycoerythrin fluorescence (HC110-R [7]; plasmid GFP-HC110-R): 2.5 ± 0.3%
- Phycoerythrin fluorescence (HC110-R [7]; plasmid HC110-R-GFP, nonspecific staining subtracted): 4.5 ± 0.4%
- Phycoerythrin fluorescence (HC110-R [7]; plasmids HC110-R-Myc/His + GFP): 10.3 ± 0.7%

Structure (SMILES): COC(=O)C1=CCCN(C)C1 [arecoline]
- arecoline-induced increase in Ca2+ [8]: 27 ± 3.5 nM

Source: patent publication US20050037436A1, “Test systems and the use thereof for identifying and characterizing compounds” (priority 2000, published 2005)
